Source: ChEMBL document CHEMBL4229447, “Synthesis and evaluation of thiomannosides, potent and orally active FimH inhibitors” (Bioorg Med Chem Lett, 2018)
In brackets after ≈: the same amount, converted by molar mass. Activity calls are given as the source filed them. No cut-off for these calls is given here.

Experiments:
[1] = Solubility of the compound in pH 6.8 JP2 buffer; type: physicochemical
[2] = Metabolic stability in mouse liver microsomes after 30 mins; type: ADME, microsome; settings: read-out: Stability
[3] = Oral bioavailability in mouse at 10 mg/kg; type: ADME, organism-based; settings: in vivo
[4] = Drug excretion in mouse urine at 10 mg/kg, po or 2 mg/kg, iv; type: ADME, organism-based; settings: read-out: Drug excretion
[5] = Lipophilicity, log D of the compound at pH 7.4; type: physicochemical; settings: buffer
[6] = target: Type 1 fimbrin D-mannose specific adhesin (Escherichia coli K-12) (UniProt P08191); test: Inhibition of Escherichia coli UTI89 FimH assessed as reduction in […] guinea pig erythrocyte hemagglutination titer
[7] = Permeability of the compound by PAMPA; type: ADME; settings: read-out: permeability
hERG (KCNH2) = hERG (KCNH2) (Homo sapiens, UniProt Q12809); test: Inhibition of human ERG at 100 uM relative to control
Mus musculus = test: Time at which simulated urine concentration stays above its HAI titer in mouse at 1 to 100 mg/kg, po; type: ADME, organism-based; settings: in vivo
[8] = Mechanism based inactivation of CYP450 (unknown origin); type: ADME; settings: human
Escherichia coli [9] = test: Antibiofilm activity against Escherichia coli UTI89 preformed biofilms; type: functional, organism-based
Escherichia coli [10] = test: Antibiofilm activity against Escherichia coli UTI89; type: functional, organism-based
Escherichia coli [11] = test: Antibacterial activity against Escherichia coli UTI89 in mouse prophylactic UTI model assessed as reduction in bacterial count in urinary bladder at 1 to 100 mg/kg, po administered 30 mins prior to infection measured at 2 and 24 hrs post infection; type: functional, organism-based

Sequence of Type 1 fimbrin D-mannose specific adhesin (Escherichia coli K-12) (P08191 whole entry): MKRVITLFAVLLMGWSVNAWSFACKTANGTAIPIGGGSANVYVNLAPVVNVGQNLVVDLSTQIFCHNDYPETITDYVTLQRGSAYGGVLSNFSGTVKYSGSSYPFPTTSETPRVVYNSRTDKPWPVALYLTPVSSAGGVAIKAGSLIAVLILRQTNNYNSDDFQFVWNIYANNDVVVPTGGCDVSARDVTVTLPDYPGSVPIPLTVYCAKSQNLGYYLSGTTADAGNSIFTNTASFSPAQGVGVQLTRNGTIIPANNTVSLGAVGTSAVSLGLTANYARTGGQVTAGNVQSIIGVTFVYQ
Sequence of hERG (KCNH2) (Q12809 whole entry): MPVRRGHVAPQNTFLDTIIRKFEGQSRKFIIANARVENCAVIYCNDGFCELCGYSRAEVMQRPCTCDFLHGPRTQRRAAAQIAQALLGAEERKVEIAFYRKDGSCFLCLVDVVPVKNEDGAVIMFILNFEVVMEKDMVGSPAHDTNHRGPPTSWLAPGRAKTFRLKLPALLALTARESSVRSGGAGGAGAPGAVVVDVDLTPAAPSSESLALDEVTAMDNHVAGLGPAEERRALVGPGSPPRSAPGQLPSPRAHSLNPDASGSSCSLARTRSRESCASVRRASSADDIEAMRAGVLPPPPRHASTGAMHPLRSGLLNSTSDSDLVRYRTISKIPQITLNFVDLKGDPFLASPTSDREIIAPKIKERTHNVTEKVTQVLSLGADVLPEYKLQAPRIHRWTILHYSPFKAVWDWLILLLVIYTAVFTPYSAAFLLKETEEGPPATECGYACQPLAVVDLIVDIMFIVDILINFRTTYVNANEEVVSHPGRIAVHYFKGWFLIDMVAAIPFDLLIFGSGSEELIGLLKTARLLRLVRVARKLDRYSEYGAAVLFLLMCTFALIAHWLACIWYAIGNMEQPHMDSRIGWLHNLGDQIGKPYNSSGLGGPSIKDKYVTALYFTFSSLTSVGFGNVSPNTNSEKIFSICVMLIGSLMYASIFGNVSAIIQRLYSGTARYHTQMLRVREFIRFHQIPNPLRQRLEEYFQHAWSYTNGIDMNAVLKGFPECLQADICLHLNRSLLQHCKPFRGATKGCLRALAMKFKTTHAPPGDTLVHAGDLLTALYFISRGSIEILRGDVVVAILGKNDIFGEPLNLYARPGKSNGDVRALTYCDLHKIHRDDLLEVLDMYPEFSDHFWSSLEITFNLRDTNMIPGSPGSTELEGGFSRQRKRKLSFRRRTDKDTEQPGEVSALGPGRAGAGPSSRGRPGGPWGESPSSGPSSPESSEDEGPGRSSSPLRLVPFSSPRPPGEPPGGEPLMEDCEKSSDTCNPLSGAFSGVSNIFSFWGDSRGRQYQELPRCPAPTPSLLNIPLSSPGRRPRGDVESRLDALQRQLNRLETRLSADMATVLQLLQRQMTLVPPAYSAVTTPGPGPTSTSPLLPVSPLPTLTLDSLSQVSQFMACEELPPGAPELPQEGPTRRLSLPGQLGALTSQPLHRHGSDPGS

Structure (SMILES)	solubility [1] [µg/mL]	remaining at 0.5 h [2] [%]	bioavailability [3] [%]	dose excreted [4] [%]	logD [5]	EC90 [6] [nM]	Papp [7] [×10⁻⁶ cm/s]	inhibition at 100 µM (hERG (KCNH2)) [%]	Time (Mus musculus)	Activity [8]	IC50 (Escherichia coli [9]) [µg/mL]	IC50 (Escherichia coli [10]) [µg/mL]	Activity (Escherichia coli [11])
Cc1cc(-c2ccc(N3CCC3)nc2)ccc1S[C@H]1O[C@H](CO)[C@@H](O)[C@H](O)[C@@H]1O	217 (≈ 518 µM)	91	14	7	2.1	1250							
Cc1cc(-c2ccc(=O)n(CC(C)C)c2)ccc1S[C@H]1O[C@H](CO)[C@@H](O)[C@H](O)[C@@H]1O	863 (≈ 1980 µM)	95	1	8.1	1.5	2500	≤ 12						
COc1ccc(-c2ccc(S[C@H]3O[C@H](CO)[C@@H](O)[C@H](O)[C@@H]3O)c(C)c2)cn1	663 (≈ 1690 µM)	100	86	2.8	2.1	310	12 to 30	10.8	<= 24 hr	Not Active	0.56 (≈ 1.42 µM)	0.3 (≈ 0.762 µM)	Active
Cc1cc(-c2ccc(=O)n(C)c2)ccc1S[C@H]1O[C@H](CO)[C@@H](O)[C@H](O)[C@@H]1O	719 (≈ 1830 µM)	72			0.3	1250	≤ 12						
CCCCn1cc(-c2ccc(S[C@H]3O[C@H](CO)[C@@H](O)[C@H](O)[C@@H]3O)c(C)c2)ccc1=O	740 (≈ 1700 µM)	95	3	7	1.7	600	≤ 12						
CCCCn1ccc(-c2ccc(S[C@H]3O[C@H](CO)[C@@H](O)[C@H](O)[C@@H]3O)c(C)c2)cc1=O	582 (≈ 1340 µM)	60	1		1.8	600	≤ 12						
CCn1cc(-c2ccc(S[C@H]3O[C@H](CO)[C@@H](O)[C@H](O)[C@@H]3O)c(C)c2)ccc1=O	668 (≈ 1640 µM)	100			0.7	2500	≤ 12						
Cc1cc(-c2ccc(=O)n(-c3ccccc3)c2)ccc1S[C@H]1O[C@H](CO)[C@@H](O)[C@H](O)[C@@H]1O	142 (≈ 312 µM)	93	15	24	1.2	1250	≤ 12						
CSc1ccc(-c2ccc(S[C@H]3O[C@H](CO)[C@@H](O)[C@H](O)[C@@H]3O)c(C)c2)cn1	150 (≈ 366 µM)	61	23	11.7	2.3	600	≤ 12						
Cc1cc(-c2ccc(=O)n(CC(C)(C)O)c2)ccc1S[C@H]1O[C@H](CO)[C@@H](O)[C@H](O)[C@@H]1O	729 (≈ 1610 µM)	97	0	5.3	0.5	1250	≤ 12						
